# In publication PMC8083960, “Kanamycin-Mediated Conformational Dynamics of Escherichia coli Outer Membrane Protein TolC” (Frontiers in Molecular Biosciences, 2021):
# Target: T1, TolC (Escherichia coli, UniProt P02930)
# T1 construct: ~54 kDa by SDS-PAGE and MALDI; crystal structure cited as trimer, 471 residues per monomer
# Assay: isothermal titration calorimetry
# Assay type: binding
# Text: isothermal titration calorimetry on TolC
# T1 sequence (P02930 23-493): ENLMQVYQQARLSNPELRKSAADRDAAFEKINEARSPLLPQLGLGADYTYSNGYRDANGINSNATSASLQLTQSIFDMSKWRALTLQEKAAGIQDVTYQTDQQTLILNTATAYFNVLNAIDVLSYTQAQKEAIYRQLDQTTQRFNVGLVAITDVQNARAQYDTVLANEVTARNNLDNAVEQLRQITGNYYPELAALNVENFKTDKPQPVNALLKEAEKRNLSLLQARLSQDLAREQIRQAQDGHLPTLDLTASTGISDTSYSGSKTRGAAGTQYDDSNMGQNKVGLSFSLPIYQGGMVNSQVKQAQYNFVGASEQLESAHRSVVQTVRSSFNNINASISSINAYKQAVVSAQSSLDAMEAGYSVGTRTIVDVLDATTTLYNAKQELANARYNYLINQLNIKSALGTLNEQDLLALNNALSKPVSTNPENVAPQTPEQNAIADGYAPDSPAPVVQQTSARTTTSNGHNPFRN
smiles,measurement,value
NC[C@H]1O[C@H](O[C@H]2[C@H](O)[C@@H](O[C@H]3O[C@H](CO)[C@@H](O)[C@H](N)[C@H]3O)[C@H](N)C[C@@H]2N)[C@H](O)[C@@H](O)[C@@H]1O [kanamycin],Kd,42.7 µM
